Measurements as given in patent US6140051A, “Fluorescent dibenzazole derivatives and methods related thereto” (priority 1998, dated 2000).
Structures can show the parent of a compound that is named as a salt. Where two headings read alike, the source gives them in different places. {BBTE} = label added with the BBTE phosphoramidite

Assays:
[1] = Fluorescence properties measured at pH about 10 in AttoPhos buffer; type: physicochemical
Experimental: * The fluorescence is measured at pH about 10 in AttoPhos buffer (JBL
Scientific, San Luis Obispo, CA).
In the following examples, NMR data were measured by a Bruker AC-300 300 MHz instrument; mass spectra were obtained on a VG Platform, Fisons Instruments; fluorescence data were obtained from a Perkin Elmer Luminescence Spectrometer, Model LS50B.

[2] = aqueous; cited from earlier work
[3] = tested on: Esterase from Porcine Liver; assay: Esterase activity towards BBT acyl derivatives; type: biochemical; details: 100 mM Tris HCl pH 8.0; Ex 440 nm, Em 550 nm; FIG. 4
Experimental: Buffer: 100 mM Tris. HCl, pH 8.0.
Substrate Stock Solution: 2 mM acyl BBT dioxane solution.
Enzymes: All enzymes were from Sigma: Esterase from Porcine Liver(E3 128); Lipase from Pseudomonas species (L9518); Lipase from Candida cylindracea (L1754). Dilute the enzyme by the buffer to the desired concentration before use.
Instrument: Squoia-Tumer Fluorometer, Model 450. Excitation at 440 nm and Emission at 550 nm.
1. Set the Fluorometer Gain to 200.
2. Set the Fluorometer Zero to 0 with the Tris buffer.
3. Set the Fluorometer Span to 1000 using JBL 10 ng BBT (FEY) standard solution.
4. Pipette 980 μl buffer to a glass test tube (Baxter, Cat. No. T1290-3).
5. Add 10 μl substrate stock solution and mix well.
6. Measure and record the blank reading.
7. Add 10 μl enzyme solution.
8. Take fluorescence reading every one minute for 3 minutes and record.
9. Calculate the fluorescence unit change (FU/min) by subtracting the first-minute reading from the second-minute reading.
10. Plot FU/min vs. enzyme concentration, u/L (FIG. 4 and FIG. 5).

[4] = tested on: Lipase from Pseudomonas species; assay: Lipase activity towards BBT acyl derivatives; type: biochemical; details: 100 mM Tris HCl pH 8.0; Ex 440 nm, Em 550 nm; FIG. 5; text says 'lipases'
Experimental: (3) Esterase and Lipase: Buffer: 100 mM Tris. HCl, pH 8.0. Substrate Stock Solution: 2 mM acyl BBT dioxane solution. Enzymes: All enzymes were from Sigma: Esterase from Porcine Liver(E3 128); Lipase from Pseudomonas species ([…]); Lipase from Candida cylindracea ([…]). Dilute the enzyme by the buffer to the desired concentration before use. Instrument: Squoia-Tumer Fluorometer, Model 450. Excitation at 440 nm and Emission at 550 nm. Procedure: 1. Set the Fluorometer Gain to 200. 2. Set the Fluorometer Zero to 0 with the Tris buffer. 3. Set the Fluorometer Span to 1000 using JBL 10 ng BBT (FEY) standard solution. 4. Pipette 980 μl buffer to a glass test tube (Baxter, Cat. No. T1290-3). 5. Add 10 μl substrate stock solution and mix well. 6. Measure and record the blank reading. 7. Add 10 μl enzyme solution. 8. Take fluorescence reading every one minute for 3 minutes and record. 9. Calculate the fluorescence unit change (FU/min) by subtracting the first-minute reading from the second-minute reading. 10. Plot FU/min vs. enzyme concentration, u/L (FIG. 4 and FIG. 5).

β-galactosidase = biological target: T1, β-galactosidase (Escherichia coli, UniProt P00722); assay: Enzymatic activity test, β-galactosidase; type: biochemical, E. Coli; details: 1 mg in 10 ml 0.1 M potassium phosphate buffer pH 7, 10 mM DTT, 1 mM MgCl2
T1 construct: purchased ICN Biomedicals, Inc. 104939; host or cells: E. Coli
T1 sequence (P00722 2-1024): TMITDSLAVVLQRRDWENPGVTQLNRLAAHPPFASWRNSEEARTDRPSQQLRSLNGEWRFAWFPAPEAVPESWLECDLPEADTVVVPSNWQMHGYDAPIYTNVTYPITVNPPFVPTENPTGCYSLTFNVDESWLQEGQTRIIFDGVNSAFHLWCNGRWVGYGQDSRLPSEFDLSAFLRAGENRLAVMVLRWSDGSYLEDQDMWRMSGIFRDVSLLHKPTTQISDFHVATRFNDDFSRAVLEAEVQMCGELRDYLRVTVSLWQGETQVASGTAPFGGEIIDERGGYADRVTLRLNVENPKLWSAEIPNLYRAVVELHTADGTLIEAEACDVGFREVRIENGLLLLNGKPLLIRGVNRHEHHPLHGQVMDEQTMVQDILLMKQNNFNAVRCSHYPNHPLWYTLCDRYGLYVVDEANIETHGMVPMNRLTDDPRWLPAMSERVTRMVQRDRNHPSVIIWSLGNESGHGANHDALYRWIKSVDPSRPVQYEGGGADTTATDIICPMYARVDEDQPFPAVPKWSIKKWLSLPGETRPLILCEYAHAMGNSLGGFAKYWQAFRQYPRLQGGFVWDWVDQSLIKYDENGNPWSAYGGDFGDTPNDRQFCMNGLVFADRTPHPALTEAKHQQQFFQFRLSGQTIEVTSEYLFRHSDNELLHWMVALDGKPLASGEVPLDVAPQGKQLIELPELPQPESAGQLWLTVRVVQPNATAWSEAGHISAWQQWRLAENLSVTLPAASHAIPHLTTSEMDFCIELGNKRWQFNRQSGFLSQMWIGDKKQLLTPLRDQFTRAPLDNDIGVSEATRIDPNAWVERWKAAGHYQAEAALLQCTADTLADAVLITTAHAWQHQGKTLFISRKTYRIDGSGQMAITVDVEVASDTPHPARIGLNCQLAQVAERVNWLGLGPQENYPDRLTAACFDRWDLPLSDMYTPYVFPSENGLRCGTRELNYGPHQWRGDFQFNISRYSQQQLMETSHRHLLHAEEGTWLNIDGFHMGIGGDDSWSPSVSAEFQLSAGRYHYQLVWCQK
Experimental: (2) β-Galactosidase: 1 mg BEBTESG was dissolved in 10 ml 0.1 M potassium phosphate buffer (pH 7) containing 10 mM DTT and 1 mM MgCl2 and a small quantity of β-galactosidase (Cat. No. 104939, E. Coli, ICN Biomedicals, Inc.) was added.

[5] = background, known fluorophores; cited from earlier work
[6] = Fluorescence of labeled oligonucleotide on DNA electrophoresis gel; details: versus non-labeled oligonucleotide
Excerpt: (4) Fluorescence: The labeled BBTE-[…] (SEQ ID NO: 1) was separated on a standard DNA electrophoresis gel, along with the non-labeled […] (SEQ ID NO: 1).

[7] = phenolic hydroxyl; cited from earlier work
[8] = cited from earlier work
[9] = pH dependence of fluorescence; type: physicochemical
Excerpt: To make the phenolic fluorophore fully fluorescent at a lower pH (7-8) to achieve the best performance for some enzymatic and biological assays, some fluorophores are synthesized with electronegative substituent(s), e.g., chloride, bromide, iodide, fluoride, trifluoromethyl, --SO3 H, etc. These substituted derivatives may be analyzed at different pH's for their fluorescent efficiency. The dependence of fluorescent intensity on pH for some preferred compounds of the invention, and comparative compounds, are shown in FIG. 3. Compared to the unsubstituted compound, BBT (also shown in the graph, U.S. Pat. No. 5,424,440), the electronegatively substituted BBT derivatives, especially CIBBT, can reach their maximum fluorescence at a pH very close to physiological conditions (pH 7-8). The pH dependent characteristic change of fluorescent intensity of these fluorophores can also find applications as pH titration fluorescent indicators.

[10] = biological target: T2, alkaline phosphatase (Calf Intestine) (Bos taurus, UniProt P19111); assay: Enzymatic activity test, alkaline phosphatase; type: biochemical; details: 1 mg in 10 ml AttoPhos buffer
T2 construct: purchased Calzyme, San Luis Obispo, Calif; host or cells: calf intestine
T2 sequence (P19111 20-506 limits assumed): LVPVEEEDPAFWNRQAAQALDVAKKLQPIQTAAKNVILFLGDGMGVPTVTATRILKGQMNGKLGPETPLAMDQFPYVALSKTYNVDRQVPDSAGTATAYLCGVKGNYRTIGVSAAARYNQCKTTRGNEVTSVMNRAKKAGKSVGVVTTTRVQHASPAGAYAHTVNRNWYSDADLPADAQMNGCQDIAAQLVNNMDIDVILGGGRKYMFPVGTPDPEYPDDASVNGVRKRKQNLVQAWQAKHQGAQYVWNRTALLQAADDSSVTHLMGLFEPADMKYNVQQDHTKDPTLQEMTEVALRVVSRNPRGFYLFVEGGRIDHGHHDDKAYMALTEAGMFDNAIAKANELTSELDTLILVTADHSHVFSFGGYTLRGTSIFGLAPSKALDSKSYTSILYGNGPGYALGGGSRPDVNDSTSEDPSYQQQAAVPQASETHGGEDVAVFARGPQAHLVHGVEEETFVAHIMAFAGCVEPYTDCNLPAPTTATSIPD
Experimental: (1) Alkaline Phosphatase: 1 mg BEBTP was dissolved in 10 ml AttoPhos buffer (JBL Scientific, San Luis Obispo, Calif.). A small quantity of alkaline phosphatase (Calf Intestine, Calzyme, San Luis Obispo, Calif.) was added.

Oc1ccc2nc(/C=C/c3nc4ccccc4o3)sc2c1 [BEBO, 2'-(2-benzoxazolylethenyl)-6'-hydroxybenzothiazole]
EM ([1]; Table 2): 604 nm
EX ([1]; Table 2): 438 nm
Stokes Shift ([1]; Table 2): 166 nm

O=C(O)Cc1ccc2nc(-c3nc4ccc(O)cc4s3)sc2c1 [BBTAA, 2'-(6-Hydroxybenzothiazol-2-yl)-benzothiazole-6'-acetic acid]
EM ([1]; Table 1): 549 nm
EX ([1]; Table 1): 430 nm
Stokes Shift ([1]; Table 1): 119 nm

Oc1ccc2nc(-c3nc4ccccc4s3)sc2c1F [FBBT, 2'-(2-Benzothiazolyl)-7'-fluoro-6'-hydroxybenzothiazole]
EM ([1]; Table 1): 552 nm
EX ([1]; Table 1): 423 nm
Stokes Shift ([1]; Table 1): 129 nm

OC[C@H]1O[C@@H](Oc2ccc3nc(-c4nc5ccccc5s4)sc3c2)[C@H](O)[C@@H](O)[C@H]1O [galactoside of BBT]
solubility [2]: less than 1 mM

CCC(=O)Oc1ccc2nc(-c3nc4ccccc4s3)sc2c1 [Propionyl BBT, 2'-(2-Benzothiazolyl)-6'-hydroxybenzothiazole Propionate]
substrate activity for porcine liver esterase [3]: very effective substrate
substrate activity for lipases [4]: very poor substrate

O=S(=O)(O)CCc1ccc2nc(/C=C/c3nc4ccc(O[C@@H]5O[C@H](CO)[C@H](O)[C@H](O)[C@H]5O)cc4s3)sc2c1 [BEBTESG, 2'-((6-Sulfoethyl-2-benzothiazolyl)ethenyl)-6'-hydroxybenzothiazole β-D-Galactoside]
fluorescence on hydrolysis by β-galactosidase (β-galactosidase): orange red fluorescence was quickly developed

O=C1OC2(c3ccc(O)cc3Oc3cc(O)ccc32)c2ccccc21 [Fluorescein]
Stokes Shift [5]: 28 nm
λEM (wavelength of maximum emission) [5]: 520 nm
λEX (wavelength of maximum excitation) [5]: 492 nm

BBTE-TCTCCCAGCGTGCGCCAT: oligonucleotide (SEQ ID NO: 1) labeled at the 5'-end with the BBTE phosphoramidite (5' {BBTE}, sugars by position and backbone not given here)
fluorescence on DNA electrophoresis gel [6]: strong yellow fluorescent band

Cc1cc(=O)oc2cc(O)ccc12 [4-Methylumbelliferone]
Stokes Shift [5]: 82 nm
λEM (wavelength of maximum emission) [5]: 449 nm
λEX (wavelength of maximum excitation) [5]: 367 nm

CCN1C(=CC=Cc2oc3ccccc3[n+]2CCCCCC(=O)[O-])Oc2ccccc21 [Cy2]
Stokes Shift [5]: 18 nm
λEM (wavelength of maximum emission) [5]: 506 nm
λEX (wavelength of maximum excitation) [5]: 489 nm

O=C(Cc1ccc2nc(-c3nc4ccc(O)cc4s3)sc2c1)NCCS(=O)(=O)O [BBTAAT]
EM ([1]; Table 1): 548 nm
EX ([1]; Table 1): 430 nm
Stokes Shift ([1]; Table 1): 118 nm

Oc1ccc2nc(/C=C/c3nc4c(ccc5ccccc54)o3)sc2c1 [α-BENO]
EM ([1]; Table 2): 585 nm
EX ([1]; Table 2): 432 nm
Stokes Shift ([1]; Table 2): 153 nm

CCCCCCCC/C=C\CCCCCCCC(=O)Oc1ccc2nc(-c3nc4ccccc4s3)sc2c1 [oleoyl BBT, 2'-(2-Benzothiazolyl)-6'-hydroxybenzothiazole Oleate]
substrate activity for porcine liver esterase [3]: low activity
substrate activity for lipases [4]: high activity

Oc1ccc2nc(/C=C/c3nc4c(ccc5ccccc54)s3)sc2c1 [α-BENT]
EM ([1]; Table 2): 624 nm
EX ([1]; Table 2): 443 nm
Stokes Shift ([1]; Table 2): 181 nm

Oc1ccc2nc(-c3ccccc3)oc2c1 [2-Phenyl-6-hydroxybenzoxazole]
Stokes Shift [5]: 110 nm
λEM (wavelength of maximum emission) [5]: 460 nm
λEX (wavelength of maximum excitation) [5]: 370 nm

Oc1ccc2nc(/C=C/c3nc4ccccc4s3)sc2c1 [BEBT, 2'-(2-benzothiazolylethenyl)-6'-hydroxybenzothiazole]
EM ([1]; Table 2): 620 nm
EX ([1]; Table 2): 440 nm
Stokes Shift ([1]; Table 2): 180 nm

OCCc1ccc2nc(-c3nc4ccc(O)cc4s3)sc2c1 [BBTE]
EM ([1]; Table 1): 550 nm
EX ([1]; Table 1): 422 nm
Stokes Shift ([1]; Table 1): 128 nm

O=C(O)Cc1ccc2nc(-c3nc4ccc(O)c(Cl)c4s3)sc2c1 [CIBBTAA, 2'-(7-Chloro-6-hydroxybenzothiazol-2-yl)-benzothiazole-6'-acetic acid]
EM ([1]; Table 1): 545 nm
EX ([1]; Table 1): 437 nm
Stokes Shift ([1]; Table 1): 108 nm

O=S(=O)(O)c1c(O)ccc2nc(-c3nc4ccccc4s3)sc12 [SBBT]
EM ([1]; Table 1): 538 nm
EX ([1]; Table 1): 420 nm
Stokes Shift ([1]; Table 1): 118 nm

Oc1ccc2nc(-c3nc4ccccc4s3)sc2c1 [BBT, 2'-(2-Benzothiazolyl)-6'-hydroxy-benzothiazole]
pKa [7]: 8.5
ionization state (fluorescence) ([8]; pH 10.3 (ALP assay)): fully ionized
ionization state (fluorescence) ([8]; pH range of 6.0 to 8.0): only partially ionized
pH at which the compound fully fluoresces [9]: 9-10 pH
Stokes Shift [5]: 142 nm
λEM (wavelength of maximum emission) [5]: 561 nm
λEX (wavelength of maximum excitation) [5]: 419 nm

O=P(O)(O)Oc1ccc2nc(/C=C/c3nc4ccccc4s3)sc2c1 [BEBTP, 2'-(2-Benzothiazolylethenyl)-6'-hydroxybenzothiazole phosphate di(2-amino-2-methyl 1,3-propanediol) salt]
fluorescence on hydrolysis by alkaline phosphatase [10]: orange red fluorescence was quickly developed

Oc1ccc2nc(/C=C/c3nc4ccc5ccccc5c4o3)sc2c1 [β-BENO]
EM ([1]; Table 2): 602 nm
EX ([1]; Table 2): 443 nm
Stokes Shift ([1]; Table 2): 159 nm

CCN(CC)c1ccc2c(-c3ccccc3C(=O)O)c3ccc(=[N+](CC)CC)cc-3oc2c1 [Rhodamine]
Stokes Shift [5]: 35 nm
λEM (wavelength of maximum emission) [5]: 575 nm
λEX (wavelength of maximum excitation) [5]: 540 nm

Oc1ccc2nc(-c3nc4ccccc4s3)sc2c1Cl [CIBBT, 2'-(Benzothiazol-2-yl)-7'-chloro-6'-hydroxybenzothiazole]
EM ([1]; Table 1): 550 nm
EX ([1]; Table 1): 435 nm
Stokes Shift ([1]; Table 1): 115 nm
pH at which maximum fluorescence is reached ([9]; FIG. 3): 7-8 pH
